# Measurements published in patent US5399487A, “6-peptidylamino-1-naphthalenesulfonamides useful as fluorogenic proteolytic enzyme substrates” (Haematologic Technologies, Inc., priority 1993, dated 1995).
# Tests used:
# Test in all cases: Fluorogenic enzyme assay (Example 5)
# Assay type in all cases: biochemical
# thrombin (IIa) = target: T1, thrombin (IIa) (Homo sapiens, UniProt P00734); set-up: key to Hydrolysis kinetic constants, IIa (symbol b): Slow substrate hydrolysis, no kinetic constants calculated; settings: for Time (min) for 10% hydrolysis, IIa: enzyme 100 nM, substrate 1 μM
# T1 construct: 0.5 nM human thrombin (IIa)
# Method: (§1) Enzyme assays (except factor VIIa assays, see below) were conducted in 20 mM Tris, 150 mM NaCl, pH 7.4 (TBS) at room temperature (22° C.). The final volume for all reaction mixtures was 2.0 ml. Fluorogenic substrates were dissolved in DMSO to a stock concentration of 10 mM. The 10 mM stock solution was diluted in TBS to the final working concentration prior to all assays. Enzyme was added to mixtures containing buffer components and substrate and the initial rate of substrate hydrolysis was measured as the change in fluorescent intensity over time, corresponding to the generation of the particular 6-amino-1-naphthalenesulfonamide fluorophore from the provided substrate. Quantitation of substrate hydrolysis was accomplished by establishing a standard curve from the appropriate fluorescent moiety. Fluorescence was monitored (continuously or discontinuously) using a Perkin Elmer fluorescence spectrophotometer, model MPF-44A, equipped with a standard chart recorder. The fluorophore was detected using monochrometers set at an excitation wavelength of 352 nm and an emission wavelength of 470 nm. Light scattering artifacts were minimized using a 399 nm cut off filter in the emission light beam.
# (§2) The kinetic constants of substrate hydrolysis were determined using the non-linear least squares regression analysis program ENZFITTER (Cambridge, UK). This program was used to iteratively fit initial rates of substrate hydrolysis to the Michaelis-Menten equation and the kinetic constants of substrate hydrolysis (Km) and (kcat) were calculated.
# urokinase (u-PA) = urokinase (u-PA) (Homo sapiens, UniProt P00749); settings: enzyme 100 nM, substrate 1 μM
# Method: as §1, §2
# [1] = target: tissue plasminogen activator (t-PA) (Homo sapiens, UniProt P00750); settings: after 24 hrs; enzyme 100 nM, substrate 1 μM
# Method: as §1, §2
# plasmin (Plm) = plasmin (Plm) (Homo sapiens, UniProt P00747); settings: enzyme 100 nM, substrate 1 μM; for Time (min) for 5% hydrolysis, Plm: footnote b
# Method: as §1, §2
# [2] = target: activated protein C (APC) (Homo sapiens, UniProt P04070); set-up: key to Hydrolysis kinetic constants, APC (symbol b): Slow substrate hydrolysis, no kinetic constants calculated; settings: for Time (min) for 10% hydrolysis, APC: enzyme 100 nM, substrate 1 μM
# Method: as §1, §2
# factor Xa = factor Xa (Homo sapiens, UniProt P00742); settings: for Km / kcat /Km, Xa / kcat, Xa: Table 7; for Time (min) for 10% hydrolysis, Xa: enzyme 100 nM, substrate 1 μM
# Method: as §1, §2
# Sequence of activated protein C (APC) (P04070 212-461 limits assumed): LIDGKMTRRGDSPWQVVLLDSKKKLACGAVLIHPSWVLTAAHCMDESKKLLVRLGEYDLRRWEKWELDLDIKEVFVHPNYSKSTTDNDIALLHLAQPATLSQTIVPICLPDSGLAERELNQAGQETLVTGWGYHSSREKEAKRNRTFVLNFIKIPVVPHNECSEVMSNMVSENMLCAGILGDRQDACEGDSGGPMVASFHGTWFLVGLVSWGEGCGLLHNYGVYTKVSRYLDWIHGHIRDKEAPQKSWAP
# Sequence of activated protein C (APC) (P04070 43-197 limits assumed): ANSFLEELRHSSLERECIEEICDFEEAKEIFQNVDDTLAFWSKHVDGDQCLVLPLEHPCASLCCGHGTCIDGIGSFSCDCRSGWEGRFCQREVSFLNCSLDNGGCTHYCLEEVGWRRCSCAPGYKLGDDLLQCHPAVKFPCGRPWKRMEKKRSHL
# Sequence of plasmin (Plm) (P00747 581-810 limits assumed, species assumed): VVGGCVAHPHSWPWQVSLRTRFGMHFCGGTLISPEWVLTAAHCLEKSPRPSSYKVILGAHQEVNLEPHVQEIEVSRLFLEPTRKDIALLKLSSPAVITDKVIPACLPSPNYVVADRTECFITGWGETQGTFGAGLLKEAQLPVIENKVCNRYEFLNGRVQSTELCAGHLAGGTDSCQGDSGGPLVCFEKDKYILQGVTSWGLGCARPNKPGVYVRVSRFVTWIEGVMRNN
# Sequence of plasmin (Plm) (P00747 97-580 limits assumed, species assumed): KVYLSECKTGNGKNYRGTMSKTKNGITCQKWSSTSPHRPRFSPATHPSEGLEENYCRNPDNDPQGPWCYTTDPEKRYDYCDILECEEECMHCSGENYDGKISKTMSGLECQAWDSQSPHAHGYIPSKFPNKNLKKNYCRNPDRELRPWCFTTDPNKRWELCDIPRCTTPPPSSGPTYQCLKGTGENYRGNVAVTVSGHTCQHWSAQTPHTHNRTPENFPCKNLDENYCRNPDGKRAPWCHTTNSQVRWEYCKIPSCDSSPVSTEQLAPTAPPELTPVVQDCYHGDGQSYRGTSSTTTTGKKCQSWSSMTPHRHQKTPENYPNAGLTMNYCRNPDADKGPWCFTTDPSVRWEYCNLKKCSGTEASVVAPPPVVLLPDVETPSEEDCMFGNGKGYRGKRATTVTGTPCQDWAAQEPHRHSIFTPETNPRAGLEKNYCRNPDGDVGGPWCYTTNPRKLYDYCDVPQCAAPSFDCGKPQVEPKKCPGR
# Sequence of factor Xa (P00742 235-488 limits assumed): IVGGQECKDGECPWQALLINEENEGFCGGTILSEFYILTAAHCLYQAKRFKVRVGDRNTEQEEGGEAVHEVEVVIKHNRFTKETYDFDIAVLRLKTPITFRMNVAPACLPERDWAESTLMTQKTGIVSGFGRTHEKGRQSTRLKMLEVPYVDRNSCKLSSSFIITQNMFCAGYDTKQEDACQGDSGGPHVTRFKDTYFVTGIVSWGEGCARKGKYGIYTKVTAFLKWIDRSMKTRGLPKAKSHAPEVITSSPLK
# Sequence of factor Xa (P00742 41-179 limits assumed): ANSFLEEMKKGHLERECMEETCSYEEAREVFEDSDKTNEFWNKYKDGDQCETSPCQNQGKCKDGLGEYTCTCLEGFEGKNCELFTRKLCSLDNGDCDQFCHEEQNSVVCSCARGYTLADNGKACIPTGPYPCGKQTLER
# Sequence of tissue plasminogen activator (t-PA) (P00750 36-562, species assumed): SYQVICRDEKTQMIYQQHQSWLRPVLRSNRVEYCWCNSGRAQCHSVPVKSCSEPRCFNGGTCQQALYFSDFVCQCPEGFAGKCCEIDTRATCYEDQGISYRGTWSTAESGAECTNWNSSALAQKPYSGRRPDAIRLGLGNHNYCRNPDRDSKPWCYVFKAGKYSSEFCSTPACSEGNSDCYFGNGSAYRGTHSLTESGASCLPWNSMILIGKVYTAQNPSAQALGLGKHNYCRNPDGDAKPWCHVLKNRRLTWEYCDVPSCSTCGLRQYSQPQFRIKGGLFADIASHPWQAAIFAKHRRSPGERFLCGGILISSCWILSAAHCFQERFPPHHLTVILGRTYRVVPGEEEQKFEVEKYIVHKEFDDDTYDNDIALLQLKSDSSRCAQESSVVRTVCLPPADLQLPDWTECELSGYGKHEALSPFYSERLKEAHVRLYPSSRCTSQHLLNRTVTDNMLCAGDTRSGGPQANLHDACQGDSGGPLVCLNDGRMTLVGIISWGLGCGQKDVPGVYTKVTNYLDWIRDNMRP
Km (thrombin (IIa); Table 7),"kcat /Km, IIa (thrombin (IIa); Table 7)","kcat, IIa (thrombin (IIa); Table 7)","Time (min) for 10% hydrolysis, IIa (thrombin (IIa))","Time (min) for 5% hydrolysis, u-PA (urokinase (u-PA); footnote b)","Time (min) for 10% hydrolysis, Plm (plasmin (Plm))",Km ([2]; Table 7),"kcat /Km, APC ([2]; Table 7)","kcat, APC ([2]; Table 7)","Time (min) for 10% hydrolysis, APC [2]",Km (factor Xa),"kcat /Km, Xa (factor Xa)","kcat, Xa (factor Xa)","Time (min) for 10% hydrolysis, Xa (factor Xa)","Time (min) for 10% hydrolysis, u-PA (urokinase (u-PA))","Time (min) for 5% hydrolysis, Plm (plasmin (Plm))","Hydrolysis kinetic constants, IIa (symbol b) (thrombin (IIa); Table 7)","Hydrolysis kinetic constants, APC (symbol b) ([2]; Table 7)",SMILES,"hydrolysis, t-PA (symbol N.D.) [1]","hydrolysis, u-PA (symbol N.D.) (urokinase (u-PA); after 24 hrs)"
27.9 µM,1090 M⁻¹ s⁻¹,0.03 s⁻¹,23 min,1620 min,1140 min,810 µM,2470 M⁻¹ s⁻¹,0.44 s⁻¹,12 min,51.8 µM,633 M⁻¹ s⁻¹,0.03 s⁻¹,55 min,,,,,Br.N=C(N)NCCC[C@H](NC(=O)OCc1ccccc1)C(=O)Nc1ccc2c(S(=O)(=O)NC3CCCCC3)cccc2c1 [(N^α -Z)ArgANSNR1 R2; H; cyclo-C6 H11],N.D. (Less than 5% hydrolysis after 24 hrs.),
35.3 µM,1420 M⁻¹ s⁻¹,0.05 s⁻¹,25 min,,,960 µM,1670 M⁻¹ s⁻¹,1.6 s⁻¹,17 min,86.5 µM,811 M⁻¹ s⁻¹,0.07 s⁻¹,33 min,200 min,1620 min,,,Br.CC(C)CNS(=O)(=O)c1cccc2cc(NC(=O)[C@H](CCCNC(=N)N)NC(=O)OCc3ccccc3)ccc12 [(N^α -Z)ArgANSNR1 R2; H; i-C4 H9],N.D. (Less than 5% hydrolysis after 24 hrs.),
24 µM,930 M⁻¹ s⁻¹,0.02 s⁻¹,34 min,,,738 µM,540 M⁻¹ s⁻¹,0.4 s⁻¹,45 min,114 µM,487 M⁻¹ s⁻¹,0.06 s⁻¹,45 min,1260 min,910 min,,,Br.CC(C)(C)NS(=O)(=O)c1cccc2cc(NC(=O)[C@H](CCCNC(=N)N)NC(=O)OCc3ccccc3)ccc12 [(N^α -Z)ArgANSNR1 R2; H; t-C4 H9],N.D. (Less than 5% hydrolysis after 24 hrs.),

# The next lines start with the compound.
SMILES,Km (thrombin (IIa); Table 7),"kcat /Km, IIa (thrombin (IIa); Table 7)","kcat, IIa (thrombin (IIa); Table 7)","Time (min) for 10% hydrolysis, IIa (thrombin (IIa))","Time (min) for 5% hydrolysis, u-PA (urokinase (u-PA); footnote b)","Time (min) for 10% hydrolysis, Plm (plasmin (Plm))",Km ([2]; Table 7),"kcat /Km, APC ([2]; Table 7)","kcat, APC ([2]; Table 7)","Time (min) for 10% hydrolysis, APC [2]",Km (factor Xa),"kcat /Km, Xa (factor Xa)","kcat, Xa (factor Xa)","Time (min) for 10% hydrolysis, Xa (factor Xa)","Time (min) for 10% hydrolysis, u-PA (urokinase (u-PA))","Time (min) for 5% hydrolysis, Plm (plasmin (Plm))","Hydrolysis kinetic constants, IIa (symbol b) (thrombin (IIa); Table 7)","Hydrolysis kinetic constants, APC (symbol b) ([2]; Table 7)","hydrolysis, t-PA (symbol N.D.) [1]","hydrolysis, u-PA (symbol N.D.) (urokinase (u-PA); after 24 hrs)"
Br.CC(C)NS(=O)(=O)c1cccc2cc(NC(=O)[C@H](CCCNC(=N)N)NC(=O)OCc3ccccc3)ccc12 [(N^α -Z)ArgANSNR1 R2; H; i-C3 H7],25 µM,1180 M⁻¹ s⁻¹,0.03 s⁻¹,34 min,,,343 µM,510 M⁻¹ s⁻¹,0.17 s⁻¹,50 min,102 µM,800 M⁻¹ s⁻¹,0.08 s⁻¹,36 min,1260 min,1370 min,,,N.D. (Less than 5% hydrolysis after 24 hrs.),
Br.N=C(N)NCCC[C@H](NC(=O)OCc1ccccc1)C(=O)Nc1ccc2c(S(=O)(=O)N3CCOCC3)cccc2c1 [(N^α -Z)ArgANSNR1 R2; morpholyl],,,,76 min,,,,,,171 min,80 µM,625 M⁻¹ s⁻¹,0.05 s⁻¹,45 min,,1220 min,b,b,N.D. (Less than 5% hydrolysis after 24 hrs.),N.D. (Less than 5% hydrolysis after 24 hrs.)
